Test results from patent publication US20210000815A1, “PHARMACOKINETIC ENHANCEMENT OF EZH2 INHIBITORS THROUGH COMBINATION THERAPIES” (Constellation Pharmaceuticals, Inc., priority 2017, published 2021).
“Also recorded” adds a separate entry of the source.

Experiments:
[1] = Adverse events in healthy subjects treated with Compound 1 with and without cobicistat; format: in vivo, human
Protocol: (§1) Healthy subjects were treated with Compound 1 with or without pretreatment with cobicistat. A single 400 mg dose of Compound 1 was administered under fasted conditions. There was a 7-day washout between administrations of the two single doses of Compound 1. Compound 1 was administered alone on Day 1 of Period 1 and administered in the presence of cobicistat on Day 1 of Period 2. Cobicistat was administered at a dose of 150 mg once daily for three days, with the third dose preceding the single dose of Compound 1 by two hours. Blood samples were collected for pharmacokinetic analysis of Compound 1 on Day 1 of each period at the following time points 0 (predose), 0.5, 1, 1.5, 2, 3, 4, 6, 8, 10, and 24 hours after the single dose of Compound 1.
All six subjects were males between the ages of 31 and 52 years. Three of the 6 subjects (50%) treated with Compound 1 with and without cobicistat reported a total of 6 adverse events. Diarrhea, reported in 2 subjects, was the only adverse event reported by more than one subject. The other adverse events reported by a single subject each included: abdominal pain, back pain, groin pain, and upper respiratory tract infection. Three of the 6 adverse events were considered to be related to study drug: concurrent events of diarrhea and abdominal pain and the other case of diarrhea. All adverse events were reported in Period 2, after dosing of all study drugs had been completed.

CYP3A = assay: Metabolism by and induction of hepatic enzyme CYP3A; format: in vitro ADME
[2] = Single-dose pharmacokinetics of Compound 1 with or without cobicistat pretreatment in healthy subjects; format: in vivo, human
Protocol: as §1

[3] = Exposure of Compound 1 upon multiple-dose administration; format: in vivo
[4] = 6 healthy male subjects, Compound 1 with and without cobicistat
[5] = single 400 mg Compound 1 with cobicistat 150 mg pretreatment vs alone
[6] = single 400 mg Compound 1 with cobicistat 150 mg pretreatment vs alone, lower bound over all subjects

SMILES: COc1cc(C)[nH]c(=O)c1CNC(=O)c1c(C)n([C@H](C)C2CCN(CC(F)(F)F)CC2)c2ccccc12 [Compound 1, (R)—N-((4-methoxy-6-methyl-2-oxo-1,2-dihydropyridin-3-yl)methyl)-2-methyl-1-(1-(1-(2,2,2-trifluoroethyl)piperidin-4-yl)ethyl)-1H-indole-3-carboxamide]
- Number of subjects reporting diarrhea [1, 4]: 2 subjects
- Subjects reporting adverse events [1, 4]: 50%
- Total number of adverse events reported [1, 4]: 6
- Severity of adverse events ([1]; with the exception of a moderate case of upper respiratory tract infection): mild in severity
- CYP3A induction (CYP3A): stronger inducer of CYP3A
- Primary metabolizing enzyme (CYP3A): primarily metabolized by the hepatic enzyme CYP3A
- half-life ([2]; male, human, plasma, oral, all subjects treated with Compound 1 and cobicistat): < 5 h
- Clearance decrease in the presence of cobicistat [2, 5]: 6.9 fold
- Effect of cobicistat on Tmax [2, 5]: unaffected
- Effect of cobicistat on terminal half-life (T1/2) [2, 5]: unaffected; also recorded: little or no effect
- AUC increase in the presence of cobicistat, all subjects (least) [2, 6]: ≥ 4.9 fold
- Cmax increase in the presence of cobicistat, all subjects (least) [2, 6]: ≥ 2.8 fold
- Cmin increase in the presence of cobicistat, all subjects (least) [2, 6]: ≥ 19 fold
- Exposure of Compound 1 400 mg with cobicistat 150 mg in healthy subjects compared with single 1600 mg dose of Compound 1 alone in patients with lymphoma ([2]; single dose): remarkably similar
- Reduction in AUC with multiple doses [3]: approximately 60%
